# Test results from patent US20100068252A1, “METHOD FOR PREPARING POLYMERIC MATRICES BY RADIATION IN THE PRESENCE OF SENSITIVE PHARMACEUTICAL COMPOUNDS” (DSM IP ASSETS B.V., priority 2006, published 2010).
# Experiment: Phase (ii) testing: UV irradiation of drug with photoinitiator (radical generation), drug recovery by HPLC
# Format: physicochemical
# Conditions: sensitive = degrades more than 5% with radical generation at 12 J/cm^2
# From the text: As used herein, the term sensitive pharmaceutical compounds is to be interpreted as compounds that degrade for more than 5% in an environment with radical generation at 12 J/cm^2 irradiation. More in particular, the pharmaceutical can be sensitive during polymerisation that can be initiated with UV or visible light (200-700 nm) or with electron beam or gamma radiation, and without or up to 10% radical generating species (initiator) present. If an initiator is present, it is preferably about 1-10 wt % of a photoinitiator. In addition to photoinitiators, the system may comprise also a thermal initiator (for example peroxide and/or redox initiators). Preferably a radiation sensitive (photo)initiator is used, for example a Norrish Type I or Type II initiator. It is possible to work in the absence of these radical generating species where electron beam or gamma radiation is used or in the case where unsaturated compounds (one compound whose double bond is electron rich and another compound whose double bond is electron poor) react with each other via a donor-acceptor complex to form a polymer.
# Potential degradation can be measured by dissolving 100 ppm (0.1 g/l) pharmaceutical compound in a suitable solvent in a quartz, glass or HPLC vessel. One series of vessels is used as such. In a second series of vessels, the one or more initiators, preferably those used in the polymerization mixture, are added in the same amount as the pharmaceutical compound. Next, the vessels are subjected to irradiation at 2 and 12 J/cm^2. As an example, UV radiation can be performed with a lab UV source Bluepoint 2, equipped with a D-bulb D65 and directed onto the sample by a UV light guide. The output from the guide is 200 mW/cm^2 (200 mJ/cm^2 per second) as measured with a Solascope 1 UV spectrometer. A dose of 2 and 12 J/cm^2 was achieved by irradiating 10 and 60 seconds, respectively. The choice of irradiation system could be governed by the applications or processing considerations that typically influence hardware use in a laboratory, hospital or manufacturing environment. […]
# The recovery could be analysed by HPLC. […] UV spectra of the drugs before and after UV irradiation (at both 2 and 12 J/cm^2) had identical shapes, meaning that the HPLC method could be used to quantitatively measure changes in drug concentrations. Any degradation would be calculated as: minus the percentage of recovered API.
# UV irradiation of drug-containing solutions (see below) was performed with a lab UV source Dr. Hoenle Bluepoint 2, equipped with a D-bulb, directed onto the (open) HPLC vials (2 ml) by a UV light guide (200 mW/cm^2; 200 mJ/cm^2 per second as measured with Solascope 1 UV emission spectrometer). […]
row,Structure (SMILES),radical sensitivity in the current testing method
1,"COc1cc2nc(N3CCN(C(=O)c4ccco4)CC3)nc(N)c2cc1OC [Prazosin ®, Prazosin]",radical sensitive
2,O=C(N[C@H](CO)[C@H](O)c1ccc([N+](=O)[O-])cc1)C(Cl)Cl [Chloroamphenicol],radical sensitive
3,"COc1cc2nc(N3CCN(C(=O)C4CCCO4)CC3)nc(N)c2cc1OC (stereo not shown) [Terazosin ®, Terazosin]",radical sensitive
4,"CCCCc1oc2ccccc2c1C(=O)c1cc(I)c(OCCN(CC)CC)c(I)c1 [Amiodarone ®, Amiodarone]",radical sensitive
